In patent US8183258B2, “Heterocyclic compounds and their uses” (Amgen Inc., priority 2007, dated 2012):
Where two headings read alike, the source gives them in different places. Each block holds one molecule with its values, some of them ahead of it.

Key:
PI3Kδ = target: T1, PI3Kδ (Homo sapiens, UniProt O00329); experiment: In vitro enzyme assay, residual ATP bioluminescence; type: biochemical
T1 construct: Full length p110 subunits of PI3k α, β and δ; polyHis (N); made in house; host or cells: Sf9 insect cells (baculovirus)
T1 sequence (P27986 whole entry partner, one chain of several): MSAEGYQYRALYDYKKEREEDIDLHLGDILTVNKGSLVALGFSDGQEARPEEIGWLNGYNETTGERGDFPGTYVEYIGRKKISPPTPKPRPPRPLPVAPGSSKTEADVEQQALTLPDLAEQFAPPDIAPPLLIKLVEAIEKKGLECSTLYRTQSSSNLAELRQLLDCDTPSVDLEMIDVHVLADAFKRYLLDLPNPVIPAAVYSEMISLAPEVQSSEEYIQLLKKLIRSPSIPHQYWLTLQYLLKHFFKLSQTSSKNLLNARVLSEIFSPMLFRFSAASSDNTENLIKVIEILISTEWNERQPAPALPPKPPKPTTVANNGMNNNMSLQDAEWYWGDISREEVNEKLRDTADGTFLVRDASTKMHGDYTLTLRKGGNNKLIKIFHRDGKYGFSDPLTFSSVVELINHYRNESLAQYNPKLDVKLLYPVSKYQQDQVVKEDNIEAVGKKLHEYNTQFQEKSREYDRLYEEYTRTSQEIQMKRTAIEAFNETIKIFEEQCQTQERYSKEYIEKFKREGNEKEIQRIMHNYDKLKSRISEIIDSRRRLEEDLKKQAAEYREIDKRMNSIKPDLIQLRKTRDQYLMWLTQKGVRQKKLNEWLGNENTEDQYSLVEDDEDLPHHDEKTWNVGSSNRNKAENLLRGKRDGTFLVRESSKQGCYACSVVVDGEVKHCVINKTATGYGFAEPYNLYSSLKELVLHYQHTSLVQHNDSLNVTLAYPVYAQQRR
Protocol: Full length p110 subunits of PI3k α, β and δ, N-terminally labeled with polyHis tag, were coexpressed with p85 with Baculo virus expression vectors in sf9 insect cells. P110/p85 heterodimers were purified by sequential Ni-NTA, Q-HP, Superdex-100 chromatography. Purified α, β and δ isozymes were stored at −20° C. in 20 mM Tris, pH 8, 0.2M NaCl, 50% glycerol, 5 mM DTT, 2 mM Na cholate. Truncated PI3Kγ, residues 114-1102, N-terminally labeled with polyHis tag, was expessed with Baculo virus in Hi5 insect cells. The γ isozyme was purified by sequential Ni-NTA, Superdex-200, Q-HP chromatography. The γ isozyme was stored frozen at −80° C. in NaH2PO4, pH 8, 0.2M NaCl, 1% ethylene glycol, 2 mM β-mercaptoethanol.
Assays were performed in 25 μL with the above final concentrations of components in white polyproplyene plates (Costar 3355). Phospatidyl inositol phosphoacceptor, PtdIns(4,5)P2 P4508, was from Echelon Biosciences. The ATPase activity of the alpha and gamma isozymes was not greatly stimulated by PtdIns(4,5)P2 under these conditions and was therefore omitted from the assay of these isozymes. Test compounds were dissolved in dimethyl sulfoxide and diluted with three-fold serial dilutions. The compound in DMSO (1 μL) was added per test well, and the inhibition relative to reactions containing no compound, with and without enzyme was determined. After assay incubation at room temperature, the reaction was stopped and residual ATP determined by addition of an equal volume of a commercial ATP bioluminescence kit (Perkin Elmer EasyLite) according to the manufacturer's instructions, and detected using a AnalystGT luminometer.

[1] = system: mouse model of rheumatoid arthritis; details: in vivo; cited from earlier work
[2] = system: model of systemic lupus erythematosis; details: in vivo; cited from earlier work
p110δ = target: T2, p110δ (Homo sapiens, UniProt O00329); details: cited from earlier work
T2 sequence (O00329 1-1044): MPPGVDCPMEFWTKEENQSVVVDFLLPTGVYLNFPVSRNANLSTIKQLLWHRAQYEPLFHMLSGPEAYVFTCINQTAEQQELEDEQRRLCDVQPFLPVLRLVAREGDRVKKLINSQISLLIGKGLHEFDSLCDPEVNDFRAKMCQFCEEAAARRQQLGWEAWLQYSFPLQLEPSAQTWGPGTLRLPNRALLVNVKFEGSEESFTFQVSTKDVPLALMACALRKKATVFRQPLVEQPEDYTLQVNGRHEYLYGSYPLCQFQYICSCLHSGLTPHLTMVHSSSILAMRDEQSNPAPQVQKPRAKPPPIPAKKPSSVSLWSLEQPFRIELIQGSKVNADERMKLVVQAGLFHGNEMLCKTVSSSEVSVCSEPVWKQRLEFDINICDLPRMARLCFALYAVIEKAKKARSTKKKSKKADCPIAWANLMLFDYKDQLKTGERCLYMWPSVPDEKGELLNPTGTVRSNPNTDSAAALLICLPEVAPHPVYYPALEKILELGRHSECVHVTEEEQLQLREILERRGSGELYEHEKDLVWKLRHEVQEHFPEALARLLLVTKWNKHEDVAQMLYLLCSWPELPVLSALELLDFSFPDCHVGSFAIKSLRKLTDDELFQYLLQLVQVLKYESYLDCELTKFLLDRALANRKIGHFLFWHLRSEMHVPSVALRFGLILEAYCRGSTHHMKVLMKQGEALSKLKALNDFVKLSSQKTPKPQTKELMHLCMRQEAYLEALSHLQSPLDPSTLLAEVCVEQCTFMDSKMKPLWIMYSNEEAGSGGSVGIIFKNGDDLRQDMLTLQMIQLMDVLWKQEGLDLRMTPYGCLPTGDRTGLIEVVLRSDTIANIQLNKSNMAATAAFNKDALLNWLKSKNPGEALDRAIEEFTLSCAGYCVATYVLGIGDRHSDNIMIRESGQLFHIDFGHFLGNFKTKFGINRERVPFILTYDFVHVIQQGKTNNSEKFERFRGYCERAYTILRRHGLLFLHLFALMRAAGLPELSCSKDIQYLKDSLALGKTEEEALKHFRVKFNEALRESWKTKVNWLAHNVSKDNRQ

[3] = system: passive cutaneous anaphylaxis (PCA); details: absence of functional delta (compound or p110δ D910A mice); cited from earlier work
[4] = system: ovalbumin-induced airway inflammation; details: cited from earlier work
protein kinases = details: cited from earlier work

SMILES: Cc1cccc2cc(CNc3nc(N)ncc3Cl)c(-c3ccccc3Cl)nc12 [Example 1, 5-Chloro-N4-((2-(2-chlorophenyl)-8-methylquinolin-3-yl)methyl)pyrimidine-2,4-diamine]
IC50 (PI3Kδ; read-out: PI3Kδ IC50): 165 nM

SMILES: O=C1NC(=O)/C(=C\c2ccc3nccnc3c2)S1 [AS 605240]
efficacy in a mouse model of rheumatoid arthritis [1]: efficacious
onset of disease in a model of systemic lupus erythematosis [2]: delay onset of disease

SMILES: Cc1ccccc1-n1c(Cn2cnc3c(N)ncnc32)nc2cccc(C)c2c1=O [IC87114]
inhibition of p110δ (p110δ): high nanomolar range (triple digit)
passive cutaneous anaphylaxis (PCA) [3]: significantly reduced
inflammation and disease in a murine model of asthma [4]: significantly ameliorate inflammation and disease
activity against any protein kinases tested (protein kinases): no activity

The remaining lines, values ahead:

IC50 (PI3Kδ; read-out: PI3Kδ IC50): 127 nM
SMILES: Cc1cccc2cc(CNc3nc(N)ncc3C(F)(F)F)c(-c3ccccc3Cl)nc12 [Example 3, N4-((2-(2-chlorophenyl)-8-methylquinolin-3-yl)methyl)-5-(trifluoromethyl)pyrimidine-2,4-diamine]

IC50 (PI3Kδ; read-out: PI3Kδ IC50): 6870 nM
SMILES: Nc1cc(NCc2cc3cccc(Cl)c3nc2-c2ccccc2Cl)ncn1 [Example 2, N4-((8-Chloro-2-(2-chlorophenyl)quinolin-3-yl)-methyl)pyrimidine-4,6-diamine]

IC50 (PI3Kδ; read-out: PI3Kδ IC50): 2820 nM
SMILES: Cc1cccc2cc(CNc3ncc(C(F)(F)F)c(N)n3)c(-c3ccccc3Cl)nc12 [Example 4, N2-((2-(2-chlorophenyl)-8-methylquinolin-3-yl)methyl)-5-(trifluoromethyl)pyrimidine-2,4-diamine]

IC50 (PI3Kδ; table after the in vitro enzyme assays, isoform and unit inferred, read-out: IC50): > 40000 nM
SMILES: NC(=O)c1cc(NS(=O)(=O)c2cc3cccc(Cl)c3nc2-c2ccccc2Cl)ccn1 [Example 7, 4-(8-chloro-2-(2-chlorophenyl)quinoline-3-sulfonamido)picolinamide]
